The test system of one test is THP-1 cells. Description: Intracellular Ca2+ influx screening (Fura-2) in THP-1 cells. Type of test: cell-based, human. How it is done:
(§1) FIGS. 1A-1D. Intracellular Ca^2+ influx screening of 84 HTS hit candidate compounds. (A) THP-1 cells were loaded with the ratiometric Ca^2+ indicator, Fura-2, and treated with lonomycin (ION, 1 μM), Thapsigargin (1 μM), or 84 hit candidate compounds (10 μM) for 25 minutes. Data are presented as the area under the curve (AUG) of OD340/380 ratios corresponding to the intracellular Ca^2+ kinetics. The baseline-subtracted AUG was calculated using GraphPad Prism (GraphPad Software, San Diego, CA). (B) Ca^2+ mobilization by compound #634. mBMDCs were loaded with the ratiometric Ca^2+ indicator, Fura-8, and treated with ION (1 μM), or #634 (2 and 10 μM) for 25 minutes. The dashed line indicates the timing of compounds added. The data shown are representative of three independent experiments showing similar results. (C) Ca^2+ add-back assay. Fura-8-loaded mBMDC were treated with ION (1 μM), or compound #634 (2 μM, 10 μM) for 15 minutes in the absence of extracellular Ca^2+, and then Ca^2+ (final 1.8 mM) was added at 15 minutes. Data shown are representative of three independent experiments showing similar results. (D) C57BL/6 mice (n=5/group) were intramuscularly immunized with ovalbumin (OVA, 20 μg/mouse) adjuvanted with compound #634 (200 nmol/mouse), or Veh (10% DMSO) on days 0 and 21 and bled on day 28. OVA-specific IgGI and IgG2c levels in sera were determined by ELISA. **p<0.01, ***p<0.001, ns (not significant) by KruskalWallis tests with Dunn's post hoc test vs. Veh.
FIGS. 18A-18C. Compound 634 induces intracellular Ca^2+ levels in mBMDCs. […] The time-response pattern of intracellular Ca^2+ levels was recorded for 25 minutes. AUC of OD340/380 ratios corresponds to the intracellular Ca^2+ kinetics, and the baseline-subtracted AUC was calculated by GraphPad Prism. […]
FIGS. 24A-24B. […] The time-response pattern of intracellular Ca^2+ levels was recorded with a plate reader for 25 minutes. (A) The AUC of OD340/380 ratios corresponds to the intracellular Ca^2+ kinetics and the baseline-subtracted AUC was calculated by GraphPad Prism (FIG. 36). […]

The test system of test [1] is mBMDCs. Description: Intracellular Ca2+ influx (Fura-2/Fura-8) in mBMDCs. Type of test: cell-based, mouse. The following applies: for intracellular Ca^2+ influx in mBMDCs (Fura-8): 2 and 10 μM, 25 minutes.
The test system of a further test is mBMDC. Description: Ca2+ add-back assay in mBMDC. The following applies: for intracellular Ca^2+ after adding Ca^2+ in the medium: Ca^2+ 1.8 mM added at 15 minutes; for intracellular Ca^2+ level without extracellular Ca^2+: Fura-8-loaded mBMDC, 2 μM, 10 μM, 15 minutes, absence of extracellular Ca^2+. The class given is cell-based, mouse. The method, then:
as §1
FIGS. 18A-18C. Compound 634 induces intracellular Ca^2+ levels in mBMDCs. (A) Intracellular Ca^2+ influx levels of the top eight compounds. THP-1 cells were loaded with the ratiometric Ca^2+ indicator, Fura-2, and treated with ION (1 μM), TG (1 μM), or test compounds (5 μM). The time-response pattern of intracellular Ca^2+ levels was recorded for 25 minutes. AUC of OD340/380 ratios corresponds to the intracellular Ca^2+ kinetics, and the baseline-subtracted AUC was calculated by GraphPad Prism. […] (B) Ca^2+ mobilization by compounds 456 and 634 in mBMDCs. mBMDCs were loaded with Fura-8 and treated with ION (1 μM), or 634 and 456 (10 μM) for 25 minutes. The dashed line indicates the timing of compounds added. The data shown are representative of three independent experiments showing similar results. (C) Ca^2+ add-back assay. Fura-8-loaded mBMDC were treated with ION (1 μM) or compound 634 (2 μM, 10 μM) for 15 minutes in the absence of extracellular Ca^2+, and then Ca^2+ (final 1.8 mM) was added at 15 minutes. The data shown are representative of three independent experiments showing similar results.

In test [2] the test system is mBMDCs. Description: EV release from mBMDCs (differential ultracentrifugation, MRPS). The following applies: for number of EV particles released in the culture supernatant: 46-48 h, vs Veh.

Entries after “also recorded” stand apart in the source; their conditions may differ.

For `CCOC(=O)c1c(NS(=O)(=O)c2cccc3c2N=S=N3)sc(C)c1C` [#634, ethyl 2-(benzo[c][1,2,5]thiadiazole-4-sulfonamido)-4,5-dimethylthiophene-3-carboxylate], in the test on THP-1 cells (hit candidate compounds 10 μM, 25 minutes, vs vehicle control (DMSO)), the “intracellular Ca^2+ increase (Fura-2 assay)” value was “higher intracellular Ca^2+ increase than vehicle control”. Also, the “intracellular Ca^2+ influx in mBMDCs (Fura-8)” value in the test with mBMDCs [1] is recorded as “rapidly increased intracellular Ca^2+”. In addition, the “time intracellular Ca^2+ increase was sustained” value in the test with mBMDCs [1] (Fura-8 assay) is on record as “at least 25 min”. In the test on mBMDC, the “intracellular Ca^2+ after adding Ca^2+ in the medium” value is given as “intracellular Ca^2+ influx was restored” and the “intracellular Ca^2+ level without extracellular Ca^2+” value is “did not increase intracellular Ca^2+ levels without extracellular Ca^2+”. Also, in the test on mBMDCs [2] (10 μM), the “release of particles of diameter less than 150 nm” value is reported as “significantly enhanced” and the “number of EV particles released in the culture supernatant” value was “increased the number of EV particles released”.

As to `CCOC(=O)c1c(NS(=O)(=O)c2cccc3nsnc23)sc(C)c1C` [compound 634, Ethyl 2-(benzo[c][1,2,5]thiadiazole-4-sulfonamido)-4,5-dimethylthiophene-3-carboxylate], the “intracellular Ca^2+ (relative AUC of OD340/380)” value in the test on THP-1 cells (validation assay, 5 μM, vs Veh 0.5% DMSO) is reported as “significantly increased intracellular Ca^2+”. For the same molecule, the “intracellular Ca^2+ influx by 634 and its SAR analogs (Fura-2)” value with mBMDCs [1] (10 μM, vs Veh 0.5% DMSO / #634) was “Ca^2+ influx positive”. The “intracellular Ca^2+ influx in mBMDCs (Fura-8)” value in the test on mBMDCs [1] is “induced Ca^2+ influx in mBMDCs; also recorded: comparable to ionomycin”. Also, in the test with mBMDC, the “intracellular Ca^2+ after adding Ca^2+ in the medium” value is “intracellular Ca^2+ levels were restored” and the “intracellular Ca^2+ level without extracellular Ca^2+” value is recorded as “did not change the intracellular Ca^2+ concentration”. Moreover, the “number of EV particles released in the culture supernatant” value with mBMDCs [2] (10 μM) is listed as “significantly increased the number of EVs released”. The “increase of the number of EVs released compared to Veh control” value in the test on mBMDCs [2] (634 10 μM, 48 hours, p<0.05) is listed as 45%.
